# Experimental data from article PMC12202533, “Mechanistic Insights and Anti-cancer Activity of 2H-benzo[b][1,4]oxazin-3(4H)-one Linked 1,2,3-Triazoles in Human Cancer Cells” (Frontiers in Pharmacology, 2025).
# Where two headings read alike, the source gives them in different places.
# Legend:
# A549 [1] = experiment: CCK-8 cell viability assay and IC50 measurement; assay type: cell-based, human; conditions: for viability at 40 µM: CCK-8, read-out: Cell viability (100%), 40 μM, 48 h, A549
# Experimental: (§1) In order to investigate the anticancer activity of new synthetic 1,4-benzoxazinone-linked 1,2,3-triazole compounds, we chose several cancer cell lines, including A549 (lung), Huh7 (liver), MCF-7 (breast), HCT-116 (colon), and SKOV3 (ovary), and measured cell viability using the CCK-8 assay. Cells were exposed to 40 μM of the compounds for 48 h, and then cell viability was determined. […] In addition, we used the reference drug gefitinib as a positive control and measured its cell viability on different cell lines. […] We used BEAS-2B cells as a normal cell line to determine the toxic effects of these compounds on normal cells. […] Furthermore, we evaluated the IC50 of these compounds in A549.
# (§2) Human cancer cell lines A549, Huh7, MCF-7, HCT-116, and SKOV3 were obtained from ATCC. The cells were cultured in DMEM or RPMI 1640 medium supplemented with 10% FBS and 1% penicillin/streptomycin and incubated at 37°C in a CO2-humidified atmosphere.
# (§3) Cells were cultured in DMEM or RPMI 1640 medium containing 10% FBS and 1% penicillin/streptomycin at 37°C and 5% CO2. The CCK-8 assay was performed on several human cancer cell lines, including A549, Huh7, MCF-7, HCT-116, and SKOV3, according to the manufacturer’s instructions. Cells were plated at a density of 5 × 10^3 cells per well in a 96-well plate. After 24 h of incubation, cells were treated with 40 μM compounds for 48 h. Cell viability was assessed by adding 10 μL of CCK-8 reagent, dissolved in the cell culture medium, and incubating for 1 h. Absorbance was measured at 450 nm using a microplate reader. IC50 values were determined using a dose-response curve with six concentrations (0, 10, 20, 40, 80, and 160 μM), and IC50 values were calculated using GraphPad Prism software.
# HCT-116 = experiment: CCK-8 cell viability assay; assay type: cell-based; conditions: Homo sapiens, HCT-116, 40 μM, 48 h, read-out: Cell viability (100%), 40 μM, 48 h, HCT-116
# Experimental: as §1, §2, §3
# Huh7 = experiment: CCK-8 cell viability assay; assay type: cell-based; conditions: Homo sapiens, Huh-7, Huh7, 40 μM, 48 h, read-out: Cell viability (100%), 40 μM, 48 h, Huh7
# Experimental: as §1, §2, §3
# MCF-7 = experiment: CCK-8 cell viability assay; assay type: cell-based; conditions: Homo sapiens, MCF7, MCF-7, 40 μM, 48 h, read-out: Cell viability (100%), 40 μM, 48 h, MCF-7
# Experimental: as §1, §2, §3
# SKOV3 = experiment: CCK-8 cell viability assay; assay type: cell-based; conditions: Homo sapiens, SK-OV-3, SKOV3, 40 μM, 48 h, read-out: Cell viability (100%), 40 μM, 48 h, SKOV3
# Experimental: as §1, §2, §3
# [2] = CCK-8 cell viability assay, normal cell line; assay type: cell-based; conditions: human, BEAS-2B cells (normal cell line), BEAS-2B normal cell line, read-out: Cell viability (100%), 40 μM, 48 h, BEAS-2B
# Experimental: as §1, §3
# A549 cells [3] = tested on: A549 cells; set-up: method as in Bollu et al., 2017; conditions: ref Bollu et al., 2017; cited from earlier work
# A549 lung cancer cell = tested on: A549 lung cancer cell; set-up: method as in Zhou et al. (2014); conditions: by inducing autophagy and cell cycle arrest; ref Zhou et al. (2014); cited from earlier work
# A549 [4] = tested on: A549; set-up: method as in Rajitha et al., 2011; conditions: ref Rajitha et al., 2011; cited from earlier work
# DLD-1 = tested on: DLD-1; set-up: method as in Rajitha et al., 2011; conditions: ref Rajitha et al., 2011; cited from earlier work
# MV4-11 = tested on: MV4-11; set-up: method as in Rajitha et al., 2011; conditions: ref Rajitha et al., 2011; cited from earlier work
# PI3Kα = tested on: PI3Kα; set-up: method as in Yan et al., 2019; conditions: ref Yan et al., 2019; read-out: IC50 against PI3Kα; cited from earlier work
# HeLa = tested on: HeLa; set-up: method as in Yan et al., 2019; conditions: ref Yan et al., 2019; cited from earlier work
# A549 cells [5] = tested on: A549 cells; set-up: method as in Yan et al., 2019; conditions: ref Yan et al., 2019; cited from earlier work
# [6] = set-up: method as in Yan et al., 2019; conditions: mice; ref Yan et al., 2019; cited from earlier work
# HepG2 cells = tested on: HepG2 cells; set-up: method as in Xie et al., 2023; conditions: ref Xie et al., 2023, cited from earlier work
# HCT116 cells [7] = tested on: HCT116 cells; set-up: method as in El Hamaky et al., 2024; conditions: ref El Hamaky et al., 2024, cited from earlier work
# topoisomerase I = tested on: topoisomerase I; set-up: method as in El Hamaky et al., 2024; conditions: ref El Hamaky et al., 2024; cited from earlier work
# topoisomerase II [8] = tested on: topoisomerase II; set-up: method as in El Hamaky et al., 2024; conditions: ref El Hamaky et al., 2024; cited from earlier work
# tubulin polymerization = tested on: tubulin polymerization; set-up: method as in El Hamaky et al., 2024; conditions: ref El Hamaky et al., 2024; cited from earlier work
# HeLa cells = tested on: HeLa cells; set-up: method as in Srinivas Reddy et al., 2022; conditions: ref Srinivas Reddy et al., 2022; cited from earlier work
# HCT116 cells [9] = tested on: HCT116 cells; set-up: method as in Mohammed et al., 2022; conditions: MTT assay; ref Mohammed et al., 2022; cited from earlier work
# topoisomerase II [10] = target: topoisomerase II; set-up: method as in Mohammed et al., 2022; conditions: ref Mohammed et al., 2022; cited from earlier work
# [11] = Homo sapiens, A549, 40 μM, 48 h
structure (smiles),measurement,setting,value
O=C1COc2ccc(NC(=O)c3cccc(-c4cn(-c5cc(Cl)ccc5F)nn4)c3)cc2N1 [Compound 14g],viability at 40 µM,A549 [1]; [11],28.2 ± 0.55%
same,inhibition at 40 µM,"A549 [1]; Homo sapiens, A549, 40 μM, 48 h, read-out: inhibition rate",> 50%
same,viability at 40 µM,HCT-116,74.8 ± 1.72%
same,viability at 40 µM,Huh7,75.3 ± 1.09%
same,viability at 40 µM,MCF-7,45.5 ± 0.99%
same,viability at 40 µM,SKOV3,87.6 ± 1.3%
same,"viability at 48 h, 40 µM",[2],103 ± 4.98%
"COc1cc2ncnc(Nc3ccc(F)c(Cl)c3)c2cc1OCCCN1CCOCC1 [Gefitinib, reference compound]",activity on A549 cells (in words),"A549 [1]; A549, CCK-8",effective activity on A549 cells
same,viability at 40 µM,A549 [1]; [11],31.1 ± 0.73%
same,viability at 40 µM,HCT-116,75.2 ± 1.66%
same,viability at 40 µM,Huh7,55 ± 0.76%
same,viability at 40 µM,MCF-7,63.73 ± 0.62%
same,viability at 40 µM,SKOV3,84.25 ± 0.32%
same,"viability at 48 h, 40 µM",[2],82.11 ± 0.74%
COc1ccc(-c2nc3ccccc3c(=O)n2C/C=C/c2ccc(C(=O)CN3C(=O)COc4ccccc43)cc2)c(OC)c1OC [compound 3],GI50,A549 cells [3],0.32 µM
COc1cc(/C=C/C(=O)c2ccc3c(c2)NC(=O)CO3)cc(OC)c1 [compound 4],A549 lung cancer cell growth,A549 lung cancer cell,effectively suppressed
O=C1COc2ccc(-c3[nH]c(-c4ccc(C(F)(F)F)cc4)nc3-c3ccccc3)cc2N1 [compound 5],viability of A549 cells,A549 [4],significantly reduced
same,viability of DLD-1 cells,DLD-1,significantly reduced
same,viability of MV4-11 cells,MV4-11,significantly reduced
COc1ccc(N2C(=O)COc3ccc(-c4cnc(OC)c(NS(=O)(=O)c5ccc(F)cc5)c4)cc32)cc1 [compound 6],IC50,PI3Kα,0.00063 µM
same,IC50,HeLa,1.35 µM
same,IC50,A549 cells [5],1.22 µM
same,oral bioavailability,[6],good
COc1c2n(cc(C(=O)Nc3cccc(-c4cn(-c5c(C)cc(C)cc5C)nn4)c3)c1=O)C[C@H]1OC[C@H](C)N1C2=O [compound 7],"apoptosis, G2/M phase arrest, and DNA damage",HepG2 cells; concentration-dependent,induced
same,IC50,HepG2 cells,4.07 ± 0.09 µM
Cc1ccc(NC(=O)Cn2cc(CSc3nc4ccccc4c(=O)n3-c3ccccc3)nn2)cc1 [compound 8],γ-H2AX protein expression,HCT116 cells [7]; HCT116,upregulated
same,IC50,HCT116 cells [7],4.87 ± 0.78 µM
same,topoisomerase I inhibition,topoisomerase I,significantly inhibited
same,topoisomerase II inhibition,topoisomerase II [8],significantly inhibited
same,tubulin polymerization inhibition,tubulin polymerization,significantly inhibited
N#Cc1ccc(-n2nnc3c2-c2cc(Cl)c4cccnc4c2OC3)cc1 [compound 9],IC50,HeLa cells,3.38 ± 1.14 µM
COc1ccc(/C=C/C(=O)c2ccc(-n3cc(CN4CCN(c5cc6c(cc5F)c(=O)c(C(=O)O)cn6C5CC5)CC4)nn3)cc2)cc1OC [compound 10],IC50,HCT116 cells [9],10.6 ± 0.8 µM
same,IC50,topoisomerase II [10],19.7 ± 0.79 µM
